# Measured values as given in PMC5812247, “Engineering thermal stability and solvent tolerance of the soluble quinoprotein PedE from Pseudomonas putida KT2440 with a heterologous whole‐cell screening approach” (Microbial Biotechnology, 2017).
# Biological target: T1, PedE (Pseudomonas putida, UniProt Q88JH5)
# T1 construct: C-terminal 6xHis tag, expressed in E. coli BL21(DE3), purified by IMAC, PQQ/Ca2+-dependent periplasmic enzyme
# T1 sequence (Q88JH5 34-631): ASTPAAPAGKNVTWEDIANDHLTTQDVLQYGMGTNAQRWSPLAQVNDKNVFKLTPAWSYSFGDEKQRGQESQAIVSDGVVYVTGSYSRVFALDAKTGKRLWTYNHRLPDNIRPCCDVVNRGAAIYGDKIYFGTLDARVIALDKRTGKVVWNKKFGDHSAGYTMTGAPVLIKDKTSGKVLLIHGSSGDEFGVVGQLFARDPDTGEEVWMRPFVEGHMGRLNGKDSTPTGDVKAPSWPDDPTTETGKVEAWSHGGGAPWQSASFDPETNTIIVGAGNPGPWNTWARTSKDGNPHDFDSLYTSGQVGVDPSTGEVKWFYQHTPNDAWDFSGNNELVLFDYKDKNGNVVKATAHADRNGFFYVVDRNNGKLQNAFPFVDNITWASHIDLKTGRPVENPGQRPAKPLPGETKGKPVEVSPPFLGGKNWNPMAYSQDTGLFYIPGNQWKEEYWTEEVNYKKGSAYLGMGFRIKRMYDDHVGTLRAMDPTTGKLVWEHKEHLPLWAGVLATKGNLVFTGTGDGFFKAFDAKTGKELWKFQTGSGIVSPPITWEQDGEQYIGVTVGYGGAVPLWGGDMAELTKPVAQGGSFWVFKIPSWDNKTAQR
# Test: residual activity after […] h at […]°C, apo vs PQQ/CaCl2-reconstituted enzyme
# Assay type: biochemical
# Conditions: reconstitution with 10 μM PQQ and 10 mM CaCl2, Tris pH 7.5; ethanol 10 mM as substrate
compound,measurement,value
O=C(O)c1cc(C(=O)O)c2c(n1)C(=O)C(=O)c1cc(C(=O)O)[nH]c1-2 [PQQ],"residual activity after 1 h at 45°C, apo vs PQQ/CaCl2-reconstituted enzyme",purified apo‐form of PedE is much less thermostable compared with the PQQ reconstituted form
